Drawing on ChEMBL document CHEMBL1201862, “PubChem BioAssay data set” (2004), this text covers AC50, IC50 and CC50 for 14 compounds.

Activity calls are given as the source filed them.

One test deals with Vero. The experiment in a line: Vero cell toxicity, dose response, cytotoxicity control, plate reader, cherry-pick samples (AID 687020). It counts as functional, cell-based. The conditions noted are these: Chlorocebus sabaeus.
The next test has as its system A549. The experiment in a line: A549 cell toxicity, dose response, cytotoxicity control, plate reader, cherry-pick samples (AID 687028). In kind it is functional, cell-based. Particulars: Homo sapiens.
Another test addresses Beta-galactosidase (Escherichia coli, UniProt Q8VNN2). Briefly: Dose response counterscreen for EBI2 assay utilizing the enzyme, b-galactosidase. In kind it is functional.
Test [1] deals with T1, Methionyl-tRNA synthetase, putative (Trypanosoma brucei brucei, UniProt Q38C91).
T1 sequence (Q38C91 whole entry): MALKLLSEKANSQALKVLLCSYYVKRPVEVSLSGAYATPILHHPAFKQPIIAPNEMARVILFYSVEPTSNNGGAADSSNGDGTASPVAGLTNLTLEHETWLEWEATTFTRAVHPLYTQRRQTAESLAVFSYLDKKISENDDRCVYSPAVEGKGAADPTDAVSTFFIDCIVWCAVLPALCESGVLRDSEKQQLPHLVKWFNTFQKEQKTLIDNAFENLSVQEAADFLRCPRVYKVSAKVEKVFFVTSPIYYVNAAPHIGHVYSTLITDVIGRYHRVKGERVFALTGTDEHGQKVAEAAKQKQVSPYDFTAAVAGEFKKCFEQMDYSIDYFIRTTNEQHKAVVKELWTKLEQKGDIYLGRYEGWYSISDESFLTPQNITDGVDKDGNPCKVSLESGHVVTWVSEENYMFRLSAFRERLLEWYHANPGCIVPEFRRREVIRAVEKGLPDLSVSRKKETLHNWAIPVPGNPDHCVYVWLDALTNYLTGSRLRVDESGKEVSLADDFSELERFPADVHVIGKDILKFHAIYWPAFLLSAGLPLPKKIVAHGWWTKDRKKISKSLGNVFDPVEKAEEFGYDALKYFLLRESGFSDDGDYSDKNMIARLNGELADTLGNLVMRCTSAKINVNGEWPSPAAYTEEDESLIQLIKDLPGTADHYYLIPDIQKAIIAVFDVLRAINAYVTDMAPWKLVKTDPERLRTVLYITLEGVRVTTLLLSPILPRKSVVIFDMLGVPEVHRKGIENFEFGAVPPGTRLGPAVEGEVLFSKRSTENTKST
It counts as functional, Trypanosoma brucei brucei strain 927/4 GUTat10.1.

The nature of test [2]: Counterscreen for inhibitors of Trypanosoma brucei methionyl tRNA synthetase (MetRS): Luminescence-based cell-based high throughput dose response assay to identify compounds that are cytotoxic to Jurkat human T lymphocyte cells. It counts as functional.
The target of test [3] is T1, Methionyl-tRNA synthetase, putative. In kind it is functional, Trypanosoma brucei brucei strain 927/4 GUTat10.1. This is another data set of the same source.
Test [4] is described as follows: HepG2 cell cytotoxicity, dose response, cytotoxicity control, ATP luminescence, cherry-pick, activator set 2 (AID 1053143). It counts as functional, cell-based.
Test [5] in a line: inhibitors of HIV Env-driven cell fusion, dose response, cherry-pick (AID 652057). In kind it is functional, cell-based.
Test [6] in a line: CEM21 lymphoblast cell cytotoxicity, dose response, cytotoxicity control for viral fusion inhibitor project, CellTiter-Glo luminescence, cherry-picked (AID 652042).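 Also: potency for signal decrease meaning cytotoxicity.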 In kind it is functional, cell-based.
Test [7] can be described thus: ZM109 Env clade C HIV-1 fusion inhibitors, dose response, HeLa effector, CEM target cells, luciferase, cherry-pick (AID 652058). It counts as functional, cell-based.
Test [8] is described as follows: off-target signal loss in HeLa-CEM21 co-culture – HeLa F-luc CTL cells, cherry-picked, counter-screen for HIV-1 Env fusion inhibitor project, dose response (AID 652040).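 Also: potency for signal decrease marking cytotoxic or nonspecific inhibition.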 In kind it is functional, cell-based.
A short description of test [9]: inhibitors of clade B AD8 Env fusion, dose response, cell-based, cherry-pick (AID 652062).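 Also: luciferase signal from cell-cell fusion driven by HIV-1 clade B AD8 Env; potency is for inhibitors of fusion seen as a drop in luminescence.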 In kind it is functional.
Another test addresses Paired box protein Pax-8 (Homo sapiens, UniProt Q06710). Briefly: inhibitors of PAX8-driven TPO luciferase reporter, dose response, RMG-I cells, cherry-pick (AID 687027).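 Also: luciferase reporter driven by Pax8 target thyroperoxidase promoter measured by SteadyGlo luminescence.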 In kind it is functional, cell-based.
The nature of test [10]: A549 cell cytotoxicity, dose response, cytotoxicity control, plate reader, cherry-pick, antagonist series (AID 743412). It counts as functional, cell-based.
A short description of test [11]: HepG2 cell cytotoxicity, dose response, cytotoxicity control, plate reader, cherry-pick, antagonist series (AID 743416). It counts as functional, cell-based.
A short description of test [12]: LGR2 antagonists, dose response, cell-based, HEK293, CRE-luciferase reporter, cherry pick, set 2 (AID 743343).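 Also: transfected cells were stimulated with diluted bursicon conditioned medium after compound addition.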 It counts as functional.
Test [13] can be described thus: non-specific cell cytotoxicity, dose response, cytotoxicity control for PAX8 inhibitor project, plate reader, dry powder samples (AID 743021). In kind it is functional, cell-based.
Test [14] is described as follows: MC4R antagonists, dose response, counter-screen for LGR2 antagonist project, cell-based, plate reader, cherry pick (AID 743444).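 Also: transfected HEK 293 cells stimulated with alpha-MSH peptide; potency of inhibitors of the alpha-MSH evoked signal.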 In kind it is functional.
Test [15] can be described thus: HEK293 cell cytotoxicity, dose response, cytotoxicity control, plate reader, cherry-picked samples (AID 743446). In kind it is functional, cell-based.
Test [16] in a line: miR-122 activators in hepatoma reporter cells, dose response, cell-based, Huh7 psiCHECK-miR122, Renilla luciferase, cherry-picked (AID 651956).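 Also: huh7 hepatoma cells stably carrying a psiCHECK-2 miR-122 sensor plasmid; renilla luciferase signal reporting endogenous miR-122 activity after 48 h compound exposure.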 In kind it is functional.
Test [17] is described as follows: HEK293T cytotoxicity, dose response, cytotoxicity control for miR-122 modulator project, cell-based, activator set, cherry-pick (AID 720690).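 Also: HEK293T human cells scored for general mammalian cytotoxicity.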 It counts as functional.
The nature of the next test: cells. It counts as functional, cell-based.
The target of test [18] is Nuclear receptor subfamily 0 group B member 1 (Homo sapiens, UniProt P51843). It counts as functional, cell-based.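 Also: HEK293T cells transfected with SF-1 and DAX-1 plus StAR promoter luciferase reporter.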
Test [19] deals with T2, Histone-lysine N-methyltransferase NSD2 (Homo sapiens, UniProt O96028).
T2 sequence (O96028 whole entry): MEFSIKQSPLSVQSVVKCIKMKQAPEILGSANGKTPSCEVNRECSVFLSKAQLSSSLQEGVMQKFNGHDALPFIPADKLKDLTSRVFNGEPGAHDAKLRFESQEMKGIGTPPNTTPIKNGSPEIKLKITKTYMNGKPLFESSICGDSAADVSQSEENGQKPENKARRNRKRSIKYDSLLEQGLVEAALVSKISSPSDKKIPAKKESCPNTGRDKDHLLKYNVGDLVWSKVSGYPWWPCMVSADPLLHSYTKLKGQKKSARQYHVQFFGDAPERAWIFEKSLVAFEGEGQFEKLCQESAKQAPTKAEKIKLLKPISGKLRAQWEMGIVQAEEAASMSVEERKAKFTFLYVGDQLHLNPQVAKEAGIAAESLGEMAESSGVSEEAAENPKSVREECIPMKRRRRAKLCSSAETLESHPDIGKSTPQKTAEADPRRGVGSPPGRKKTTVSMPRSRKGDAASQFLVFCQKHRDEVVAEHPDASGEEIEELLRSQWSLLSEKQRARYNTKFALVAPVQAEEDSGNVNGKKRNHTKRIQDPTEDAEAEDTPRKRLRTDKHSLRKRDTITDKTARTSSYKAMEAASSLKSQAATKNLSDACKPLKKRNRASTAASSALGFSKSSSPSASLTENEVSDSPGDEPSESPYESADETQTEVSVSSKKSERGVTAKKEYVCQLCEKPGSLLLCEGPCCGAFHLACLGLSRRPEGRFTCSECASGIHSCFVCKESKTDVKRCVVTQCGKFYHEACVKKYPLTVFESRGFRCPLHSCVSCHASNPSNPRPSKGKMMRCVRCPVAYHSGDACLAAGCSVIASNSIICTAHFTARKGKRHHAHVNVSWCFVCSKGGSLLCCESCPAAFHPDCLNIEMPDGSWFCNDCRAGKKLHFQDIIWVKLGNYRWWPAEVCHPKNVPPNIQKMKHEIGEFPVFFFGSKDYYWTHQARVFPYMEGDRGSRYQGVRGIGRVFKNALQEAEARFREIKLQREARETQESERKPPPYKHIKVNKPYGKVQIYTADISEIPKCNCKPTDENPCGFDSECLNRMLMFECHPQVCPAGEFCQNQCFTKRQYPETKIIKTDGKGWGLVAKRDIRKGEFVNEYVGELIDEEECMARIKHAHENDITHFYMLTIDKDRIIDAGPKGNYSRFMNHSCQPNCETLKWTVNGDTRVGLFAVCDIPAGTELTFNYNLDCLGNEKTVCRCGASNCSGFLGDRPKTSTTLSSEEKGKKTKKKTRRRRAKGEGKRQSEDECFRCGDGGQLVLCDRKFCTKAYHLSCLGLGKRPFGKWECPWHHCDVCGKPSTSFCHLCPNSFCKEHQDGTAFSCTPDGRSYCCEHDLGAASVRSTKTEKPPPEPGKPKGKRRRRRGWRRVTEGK
It counts as biochemical.

A short description of test [20]: NIH:OVCAR-3 ovarian cancer cell cytotoxicity, dose response, PAX8 inhibitor project, plate reader, dry powder samples (AID 743044). In kind it is functional, cell-based.
The nature of test [21]: IGROV1 ovarian cancer cell cytotoxicity, dose response, PAX8 inhibitor project, plate reader, dry powder samples (AID 743043). It counts as functional, cell-based. The conditions noted are these: IGROV-1.
Test [22] in a line: cytotoxicity in OVCAR8 ovarian cancer cells, dose response, PAX8 project, cell-based, plate reader, dry powder samples (AID 743197). It counts as functional. Particulars: OVCAR-8.
Test [23] in a line: HeLa cell cytotoxicity, dose response, cytotoxicity control for MgcRacGAP inhibitor project (AID 624300). It counts as functional.
Test [24] addresses T3, Rac GTPase-activating protein 1 (Homo sapiens, UniProt Q9H0H5).
T3 sequence (Q9H0H5 whole entry): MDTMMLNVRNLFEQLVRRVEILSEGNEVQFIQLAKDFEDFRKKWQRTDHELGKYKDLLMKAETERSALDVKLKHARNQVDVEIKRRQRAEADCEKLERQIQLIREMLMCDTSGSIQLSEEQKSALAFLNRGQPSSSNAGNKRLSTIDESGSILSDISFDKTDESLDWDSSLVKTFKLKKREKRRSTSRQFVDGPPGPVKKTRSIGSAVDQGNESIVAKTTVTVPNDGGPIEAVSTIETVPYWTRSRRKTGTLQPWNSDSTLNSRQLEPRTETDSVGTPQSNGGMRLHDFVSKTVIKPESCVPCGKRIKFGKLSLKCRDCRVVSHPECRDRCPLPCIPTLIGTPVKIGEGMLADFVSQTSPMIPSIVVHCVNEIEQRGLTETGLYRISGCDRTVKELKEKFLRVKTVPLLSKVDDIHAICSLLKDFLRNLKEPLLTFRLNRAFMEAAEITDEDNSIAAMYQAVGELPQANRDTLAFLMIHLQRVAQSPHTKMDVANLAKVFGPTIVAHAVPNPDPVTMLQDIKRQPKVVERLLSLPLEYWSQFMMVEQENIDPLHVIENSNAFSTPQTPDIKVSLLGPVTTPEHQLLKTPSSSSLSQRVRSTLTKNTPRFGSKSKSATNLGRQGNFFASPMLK
The experiment in a line: MgcRacGAP GTPase-activating activity inhibitors, confirmation, biochemical, ADP Hunter fluorescence, primary and confirmatory (AID 624330). It counts as functional.

Chain of Nuclear receptor subfamily 0 group B member 1 (P51843 whole entry): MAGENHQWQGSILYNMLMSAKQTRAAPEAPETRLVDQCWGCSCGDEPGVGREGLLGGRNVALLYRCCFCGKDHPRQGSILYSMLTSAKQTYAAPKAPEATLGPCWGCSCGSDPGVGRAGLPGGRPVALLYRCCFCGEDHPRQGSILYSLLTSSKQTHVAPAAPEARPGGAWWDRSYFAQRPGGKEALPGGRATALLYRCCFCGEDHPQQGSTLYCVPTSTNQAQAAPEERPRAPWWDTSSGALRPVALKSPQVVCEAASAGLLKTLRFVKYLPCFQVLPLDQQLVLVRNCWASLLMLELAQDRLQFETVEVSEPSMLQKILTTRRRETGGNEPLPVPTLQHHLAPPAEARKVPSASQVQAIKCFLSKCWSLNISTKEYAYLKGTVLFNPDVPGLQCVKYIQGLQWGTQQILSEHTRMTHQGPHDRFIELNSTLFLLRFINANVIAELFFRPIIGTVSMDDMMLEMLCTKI
Chain of Paired box protein Pax-8 (Q06710 whole entry): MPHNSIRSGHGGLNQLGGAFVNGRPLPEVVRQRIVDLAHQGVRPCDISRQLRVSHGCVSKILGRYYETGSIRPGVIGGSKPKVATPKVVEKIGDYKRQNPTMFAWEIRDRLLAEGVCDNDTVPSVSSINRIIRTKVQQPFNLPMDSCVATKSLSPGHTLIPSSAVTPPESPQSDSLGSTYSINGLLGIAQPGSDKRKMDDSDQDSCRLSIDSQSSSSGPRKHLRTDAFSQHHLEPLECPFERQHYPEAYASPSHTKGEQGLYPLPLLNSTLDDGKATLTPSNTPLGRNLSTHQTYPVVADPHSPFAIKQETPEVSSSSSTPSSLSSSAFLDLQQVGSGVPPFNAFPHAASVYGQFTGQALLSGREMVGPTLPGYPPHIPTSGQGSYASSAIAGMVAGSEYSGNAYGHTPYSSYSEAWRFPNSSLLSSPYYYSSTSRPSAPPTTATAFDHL
Chain of Beta-galactosidase (Q8VNN2 whole entry): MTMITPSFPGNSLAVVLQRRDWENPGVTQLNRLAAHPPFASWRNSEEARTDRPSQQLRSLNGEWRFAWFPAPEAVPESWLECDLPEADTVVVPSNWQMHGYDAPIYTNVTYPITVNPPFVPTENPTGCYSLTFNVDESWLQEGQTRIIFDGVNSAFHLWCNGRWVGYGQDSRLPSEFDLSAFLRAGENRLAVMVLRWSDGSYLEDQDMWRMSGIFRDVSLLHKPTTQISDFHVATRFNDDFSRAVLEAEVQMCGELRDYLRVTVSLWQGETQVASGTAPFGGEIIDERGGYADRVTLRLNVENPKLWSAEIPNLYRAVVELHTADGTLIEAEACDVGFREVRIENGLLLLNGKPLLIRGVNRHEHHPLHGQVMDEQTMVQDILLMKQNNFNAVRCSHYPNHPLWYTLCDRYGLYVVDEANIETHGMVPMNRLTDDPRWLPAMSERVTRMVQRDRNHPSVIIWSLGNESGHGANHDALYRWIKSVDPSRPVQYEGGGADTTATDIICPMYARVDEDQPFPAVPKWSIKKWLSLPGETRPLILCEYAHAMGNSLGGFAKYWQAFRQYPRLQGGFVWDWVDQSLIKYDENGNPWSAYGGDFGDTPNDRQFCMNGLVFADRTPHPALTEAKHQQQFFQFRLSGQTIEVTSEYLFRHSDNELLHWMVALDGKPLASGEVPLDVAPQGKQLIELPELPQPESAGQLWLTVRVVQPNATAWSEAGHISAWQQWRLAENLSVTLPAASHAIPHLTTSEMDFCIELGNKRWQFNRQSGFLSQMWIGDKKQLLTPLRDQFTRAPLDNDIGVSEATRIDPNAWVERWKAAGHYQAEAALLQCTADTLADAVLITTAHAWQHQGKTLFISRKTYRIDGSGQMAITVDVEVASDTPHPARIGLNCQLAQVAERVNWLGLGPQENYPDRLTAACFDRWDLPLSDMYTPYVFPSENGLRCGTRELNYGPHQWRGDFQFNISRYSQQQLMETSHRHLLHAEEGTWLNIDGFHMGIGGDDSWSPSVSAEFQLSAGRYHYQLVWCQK

On to `CC1CCCN(CCOc2cccc(Oc3ccccc3)c2)C1` (centres undefined), for which the concentration at half-maximal activity (AC50) in the test with Vero is 2.31 µM (active); in the test with A549 it was 1.65 µM (active).

Turning to `O=C(COc1ccc(Cl)cc1)N1CCN(C/C=C/c2ccccc2)CC1`, on Beta-galactosidase, the IC50 is > 80 µM (inactive).

Take `CCN1C(=O)C(CC(=O)Nc2ccc(F)cc2)N(CCc2ccc(OC)cc2)C1=S` (centres undefined): the IC50 in [1] is 13.2 µM (inactive); in test [2] it was 83.3 µM (inactive); in [3] it was 10.5 µM (inactive).

`CN1CCN(Cc2cc(Cl)c3cccnc3c2OC(=O)c2cccs2)CC1`: in test [4], the AC50 was 26 µM (active).

For the compound `CN(C)C(=O)c1ccc(-c2cc3onc(-c4ccccc4)c3c(=O)n2C)cc1`, in test [4], the half-maximal activity concentration (AC50) is 26 µM (active).

Regarding `S=C(NCCc1ccccc1)N1Cc2cc(N3CCCCC3)ccc2-n2nncc2C1`, the half-maximal activity concentration (AC50) in test [5] was 5.34 µM (active); in test [6] it was 60.7 µM (active); in test [7], 9.8 µM (active); in test [8], 7.92 µM (active); in [9], 9.73 µM (active).

For `COc1cccc(-c2c[nH]c(C(O)c3cc(Cl)cc(Cl)c3)n2)c1` (centres undefined), the IC50 in test [1] was 10.3 µM (inactive); in test [2], 83.3 µM (inactive); in test [3], 4.9 µM (active).

`Oc1nc2ccccc2n1C1CCN(C(CCc2ccccc2)c2nnnn2-c2ccc3c(c2)OCCO3)CC1` (centres undefined): the AC50 at Paired box protein Pax-8 was 1.54 µM (active); in test [10], 7.65 µM (active); in [11], 16.5 µM (active); in test [12] it was 9.66 µM (active); in test [13] it was 10.8 µM (active); in test [14] it was 2.86 µM (active). For the same compound, in test [15], the concentration at half-maximal activity (AC50) is 14.5 µM (active).

For `COc1ccccc1NC(=O)N1CCCCN2[C@H](CO)[C@H](c3ccc(C#CC4CCCC4)cc3)[C@H]2C1`, the AC50 in test [16] was 21.9 µM (active); in test [17], 12.6 µM (active).

For `Cc1ccccc1-c1nnc2n1N=C(c1ccc(O)c(O)c1)CS2`, the IC50 (in the test “cells”; in test [18]) was > 67.6 µM (inactive) each time. In [19], the AC50 is > 20 µM (inactive).

`O=C(c1ccc(F)cc1)N1CC(=O)N2[C@@H](CO)[C@@H](c3ccc(C#Cc4ccc(F)cc4)cc3)[C@@H]2C1`: the AC50 at Paired box protein Pax-8 is 9.4 µM (active); in test [20] it was 7.81 µM (active); in test [21] it was 23 µM (active); in [13] it was 2.16 µM (active); in test [22] it was > 70 µM (inactive).

With `CCOc1ccc(/C=N/NC(=O)NC23CC4CC(CC(C4)C2)C3)cc1O`, in test [23], the CC50 was 100 µM (active). In [24], the IC50 is 148 µM (active).

In the case of `O/N=C/c1ccn(-c2ccc(Br)cc2)c1`, the IC50 (in “cells”; in test [18]) was > 67.5 µM (inactive) in each case.

As for `CCC1CN(S(=O)(=O)c2ccc3c(c2)NC(=O)CC(=O)N3)c2cc(Cl)ccc2O1` (centres undefined), the AC50 in the test with Vero was 27.7 µM (active); in the test with A549, 28.5 µM (active).
